“Also recorded” adds a separate entry of the source.
What was measured:
[1] = system: F-actin; assay: Protein co-sedimentation / actin bundling (differential centrifugation, SDS gel); format: biochemical, human; conditions: co-sedimentation; F-actin with Tau (1:1) or Tau peptides (1:10; Tau(254–268) 1:30), room temperature 30 min
Experimental: The ability of Tau to bundle F-actin was studied using electron microscopy (EM). […] Next, Tau/F-actin co-sedimentation was performed. The same sample, which was used for EM, was exposed to two sequential steps of centrifugation, in which single-actin filaments and actin bundles were collected separately. Subsequently, aliquots from supernatant (SN), filament (PF), and bundle (PB) fractions were loaded in a 4–20% gradient gel (Fig. 1c).
The sample was then dialyzed against General Actin Buffer (GAB; 5 mM TrisHCl pH 8.0, 0.2 mM CaCl2, 0.2 mM ATP, 0.5 mM DTT) or NMR buffer (50 mM NaH2PO4/Na2HPO4 pH 6.8, 10 mM NaCl, 1 mM DTT, 10% (v/v) D2O) to be used for electron microscopy or NMR experiments, respectively. In case of actin, lyophilized actin was reconstituted to 10 mg ml^−1 by adding 100 μl of distilled water to be in the following buffer: GAB with 5% (w/v) sucrose and 1% (w/v) dextran. Subsequently, the sample was spun at 18,400 × g for 15 min, the supernatant was kept, and actin was polymerized by incubating 0.4 mg ml^−1 G-actin in GAB and supplemented with polymerization buffer (1/10th the volume; 100 mM Tris HCl pH 7.5, 20 mM MgCl2, 500 mM KCl, 10 mM ATP) for 1 h at room temperature. Afterwards, the sample was centrifuged at 100,000 × g during 1 h at 4 °C. Filaments were collected at the bottom of the ultracentrifuge tube. The pellet was then resuspended in GAB or NMR Buffer as required.
Mixtures of F-actin with Tau (1:1) or Tau peptides (1:10 molar ratio) were incubated at room temperature for 30 min. In case of the shorter peptide Tau(254–268), a 1:30 ratio was used. Centrifugation was performed in two steps. First, a spin rate of 5000 × g was used during 15 min to collect bundles of F-actin (PB) at the bottom of the tube. Secondly, the remaining sample was centrifuged at 100,000 × g during 1 h collecting actin filaments (PF). The final supernatant (SN) was also kept for later usage. Pellets were resuspended in 80 μl of GAB. A volume of 25 μl of sample were taken for EM while the remaining 55 μl were loaded in a 4–20% gradient SDS gel, which was colored with […] and denatured with SDS and heat.

[2] = system: F-actin; assay: 2D 1H-15N HSQC NMR signal attenuation of Tau by F-actin; format: binding, human; conditions: Tau/F-actin molar ratio 1:1.5; compared with non-phosphorylated Tau
From the text: In order to identify residues in Tau that bind to F-actin, we used NMR spectroscopy. […] According to the resonance assignment of Tau[27], cross-peaks from residues such as S262, N265, and T319 were strongly attenuated. Other residues including T175 and T217 were less affected, and S46 and S64 were not perturbed. Figure 1f highlights the sequence specific intensity ratio of all non-overlapping cross-peaks of Tau in the presence and absence of F-actin. […] In contrast, residues, which are bound to F-actin, should have low (I bound/I free) values, because their resonances would—due to the high molecular weight of the complex—be attenuated. […] Consistent with this hypothesis, the cross-peaks of these residues were attenuated by F-actin also at higher ionic strength (Supplementary Fig. 3).
The sample was then dialyzed against General Actin Buffer (GAB; 5 mM TrisHCl pH 8.0, 0.2 mM CaCl2, 0.2 mM ATP, 0.5 mM DTT) or NMR buffer (50 mM NaH2PO4/Na2HPO4 pH 6.8, 10 mM NaCl, 1 mM DTT, 10% (v/v) D2O) to be used for electron microscopy or NMR experiments, respectively. In case of actin, lyophilized actin was reconstituted to 10 mg ml^−1 by adding 100 μl of distilled water to be in the following buffer: GAB with 5% (w/v) sucrose and 1% (w/v) dextran. […]

With “MARK2-phosphorylated Tau: full-length Tau phosphorylated by MARK2 at S262, S293, S305, S324, S356, and S416” the “bundling of F-actin” value [1] was “failed in bundling actin filaments” and the “F-actin-induced NMR signal attenuation near phosphorylation sites / F-actin binding in words” value [2] was “little attenuation of NMR signals in vicinity of the phosphorylation sites; also recorded: attenuates its binding to F-actin”.

Source: article PMC5719408, “Multivalent cross-linking of actin filaments and microtubules through the microtubule-associated protein Tau” (Nature Communications, 2017)
